Test results from article PMC8329300, “X-ray crystallography reveals molecular recognition mechanism for sugar binding in a melibiose transporter MelB” (Communications Biology, 2021).
Several values for one entry are separate records, joined by “and”; a condition that tells them apart may be missing. Equal values may be shown once.

What was measured:
D59C MelBSt = target: T1, D59C MelBSt (Salmonella typhimurium, UniProt P30878, D59C); experiment: Trp→dansyl galactoside (D2G) FRET time trace and IC50 of D2G displacement (D59C); format: binding
T1 construct: Cys scanning mutagenesis for the full-length MelBSt; His10 (C); made in house; host or cells: E. coli DW2
Protocol: Fig. 1 Functional characterizations. a [^3H] Melibiose transport time course with intact cells. […] Inset, melibiose fermentation assay. Transformants with DW2 strain were plated on MacConkey agar plates containing 30 mM melibiose as the sole carbohydrate source and pH sensor neutral red, and incubated at 37 °C for 16–18 h before imaging. Number of tests = 3, from different batch of cells or duplicate measurements from same batch of sample. b Ligand binding by Trp→dansyl galactoside (D^2G) FRET assay. Purified proteins at 1 μM concentration in 20 mM Tris-HCl, pH 7.5, 100 mM CholCl, 10% glycerol, and 0.03% UDM were subjected to steady-state fluorescence measurements as described in Methods. On the time-trace, 1.8 μL of 1 mM D^2G at 10 μM was added into 180 μL of protein solutions at 1-min point, followed by supplying 10 μL of 5 mM DDMB or 5 mM α-NPG to displace the bound D^2G. For testing Na^+ or Li^+ binding, they are added into the solution before displacement with the second sugar. The structure of DDMB or α-NPG is shown in a chair form, and the carbon positions are labeled. Glycosidic bonds are indicated by arrows. Both are α-galactosides containing a substituent at the anomeric carbon-1. The data were from duplicate measurements.
Steady-state fluorescence measurements were performed with an AMINCO-Bowman series 2 spectrometer with purified MelBSt at 1 μM in 20 mM Tris-HCl, pH 7.5, 100 mM CholCl, 10% glycerol, 0.03% UDM. Using an excitation wavelength at 290 nm, the emission intensity was recorded at 490 nm. On a time-trace, D^2G, NaCl or LiCl, then DDMB or α-NPG, were sequentially added into the protein solutions at a 1 min-interval. […] An identical volume of water was used for the control. The decrease in intensity after each addition of DDMB or α-NPG was corrected by the dilution effect and plotted as a function of the accumulated α-NPG concentrations or estimated DDMB concentrations. The 50% inhibitory concentration (IC50) was determined by fitting a hyperbolic function to the data (OriginPro 2020b). The final concentration of each detergent is estimated to be 234 μM, which is less than their CMC value for (DDMB, 295 μM).
Supplementary Figure 2. Determination of DDMB binding affinity to MelBSt. (a) Titration with DDMB or a-NPG. MelBSt in 20 mM Tris-HCl, pH 7.5, 100 mM CholCl, 10% glycerol, 0.03% UDM without (1) or with 100 mM NaCl (2) were added with D2G at 10 μM at 1-min time point as indicated by triangle symbols on the Trp®dansyl FRET time trace. Starting at the 2-min of time point, DDMB or a-NPG solution was supplemented consecutively at a 1-min interval into MelBSt solution till no change in fluorescence intensity reached as indicated in star symbols. DDM and UDM were used as negative controls. 1% DDM or UDM was titrated into the mixture, The […]
At 2-min time point, additions of galactosides were colored in pink, a-NPG in yellow, UDM in blue, DDM in light blue, water in gray traces, respectively. (b) IC50 determination. The intensity decrease at each titration were corrected by the dilution effect, and plotted as a function of the accumulated DDMB or α-NPG concentration. The 50% inhibitory concentration (IC50) was determined by fitting the data to a hyperbolic function (OriginPro 2020b). Results are presented in […]
(1 picture or pasted object on this page, not shown here)

WT MelBSt = target: T2, WT MelBSt (Salmonella typhimurium, UniProt P30878); conditions: cited from earlier work
T2 construct: Cys scanning mutagenesis for the full-length MelBSt; His10 (C); made in house; host or cells: E. coli DW2
T2 sequence (P30878 whole entry): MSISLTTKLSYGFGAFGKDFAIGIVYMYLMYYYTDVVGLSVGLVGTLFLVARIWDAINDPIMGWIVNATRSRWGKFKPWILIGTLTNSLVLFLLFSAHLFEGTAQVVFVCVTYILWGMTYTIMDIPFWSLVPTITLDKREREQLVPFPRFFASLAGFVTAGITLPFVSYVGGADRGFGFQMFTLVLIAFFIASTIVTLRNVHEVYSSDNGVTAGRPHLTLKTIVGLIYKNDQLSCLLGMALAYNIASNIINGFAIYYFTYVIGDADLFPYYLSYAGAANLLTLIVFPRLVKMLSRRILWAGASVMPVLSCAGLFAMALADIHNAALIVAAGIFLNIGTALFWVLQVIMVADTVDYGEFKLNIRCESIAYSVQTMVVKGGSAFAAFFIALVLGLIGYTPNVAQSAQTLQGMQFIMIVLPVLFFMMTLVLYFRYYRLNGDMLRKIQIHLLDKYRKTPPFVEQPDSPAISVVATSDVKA

T1 sequence (P30878 whole entry D59C): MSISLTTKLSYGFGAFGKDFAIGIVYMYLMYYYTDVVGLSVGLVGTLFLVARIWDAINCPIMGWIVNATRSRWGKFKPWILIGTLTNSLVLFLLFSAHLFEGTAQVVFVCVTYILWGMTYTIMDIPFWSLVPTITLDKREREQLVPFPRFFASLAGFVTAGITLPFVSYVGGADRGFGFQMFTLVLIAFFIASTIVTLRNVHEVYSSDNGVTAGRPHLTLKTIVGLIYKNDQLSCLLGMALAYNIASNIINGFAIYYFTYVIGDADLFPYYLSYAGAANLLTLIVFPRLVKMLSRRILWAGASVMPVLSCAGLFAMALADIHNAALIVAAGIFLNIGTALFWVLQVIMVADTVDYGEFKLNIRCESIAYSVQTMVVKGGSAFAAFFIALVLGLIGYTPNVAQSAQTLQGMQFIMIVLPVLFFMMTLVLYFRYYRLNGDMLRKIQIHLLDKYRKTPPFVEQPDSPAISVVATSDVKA

CN(C)c1cccc2c(S(=O)(=O)NCCS[C@@H]3O[C@H](CO)[C@H](O)[C@H](O)[C@H]3O)cccc12 [D^2G, 2′-(N-dansyl)aminoalkyl-1-thio-β-D-galactopyranoside]
Trp to D2G FRET signal, Test (D59C MelBSt; D59C MelBSt mutant H+, Time 1.58333): 1.236 and 1.275 | Trp to D2G FRET signal, Test (D59C MelBSt; D59C MelBSt mutant H+, Time 1.6): 1.234 and 1.287 | Trp to D2G FRET signal, Test (D59C MelBSt; D59C MelBSt mutant H+, Time 1.61667): 1.243 and 1.289 | Trp to D2G FRET signal, Test (D59C MelBSt; D59C MelBSt mutant H+, Time 1.63333): 1.234 and 1.283 | Trp to D2G FRET signal, Test (D59C MelBSt; D59C MelBSt mutant H+, Time 1.65): 1.232 and 1.292 | Trp to D2G FRET signal, Test (D59C MelBSt; D59C MelBSt mutant H+, Time 1.66667): 1.262 and 1.286 | Trp to D2G FRET signal, Test (D59C MelBSt; D59C MelBSt mutant H+, Time 1.68333): 1.239 and 1.271 | Trp to D2G FRET signal, Test (D59C MelBSt; D59C MelBSt mutant H+, Time 1.7): 1.251 and 1.2854 | Trp to D2G FRET signal, Test (D59C MelBSt; D59C MelBSt mutant H+, Time 1.71667): 1.228 and 1.2851 | Trp to D2G FRET signal, Test (D59C MelBSt; D59C MelBSt mutant H+, Time 1.73333): 1.233 and 1.277 | Trp to D2G FRET signal, Test (D59C MelBSt; D59C MelBSt mutant H+, Time 1.75): 1.255 and 1.269 | Trp to D2G FRET signal, Test (D59C MelBSt; D59C MelBSt mutant H+, Time 1.76667): 1.25 and 1.265 | Trp to D2G FRET signal, Test (D59C MelBSt; D59C MelBSt mutant H+, Time 1.78333): 1.239 and 1.277 | Trp to D2G FRET signal, Test (D59C MelBSt; D59C MelBSt mutant Li+, Time 1.58333): 1.183 and 1.18 and 1.353 | Trp to D2G FRET signal, Test (D59C MelBSt; D59C MelBSt mutant Li+, Time 1.6): 1.194 and 1.191 and 1.312 | Trp to D2G FRET signal, Test (D59C MelBSt; D59C MelBSt mutant Li+, Time 1.61667): 1.182 and 1.19 and 1.349 | Trp to D2G FRET signal, Test (D59C MelBSt; D59C MelBSt mutant Li+, Time 1.63333): 1.194 and 1.172 and 1.325 | Trp to D2G FRET signal, Test (D59C MelBSt; D59C MelBSt mutant Li+, Time 1.65): 1.192 and 1.191 and 1.377 | Trp to D2G FRET signal, Test (D59C MelBSt; D59C MelBSt mutant Li+, Time 1.66667): 1.194 and 1.178 and 1.324 | Trp to D2G FRET signal, Test (D59C MelBSt; D59C MelBSt mutant Li+, Time 1.68333): 1.1972 and 1.188 and 1.334 | Trp to D2G FRET signal, Test (D59C MelBSt; D59C MelBSt mutant Li+, Time 1.7): 1.181 and 1.193 and 1.331 | Trp to D2G FRET signal, Test (D59C MelBSt; D59C MelBSt mutant Li+, Time 1.71667): 1.193 and 1.183 and 1.334 | Trp to D2G FRET signal, Test (D59C MelBSt; D59C MelBSt mutant Li+, Time 1.73333): 1.188 and 1.175 and 1.3208 | Trp to D2G FRET signal, Test (D59C MelBSt; D59C MelBSt mutant Li+, Time 1.75): 1.1972 and 1.183 and 1.3266 | Trp to D2G FRET signal, Test (D59C MelBSt; D59C MelBSt mutant Li+, Time 1.76667): 1.189 and 1.172 and 1.31 | Trp to D2G FRET signal, Test (D59C MelBSt; D59C MelBSt mutant Na+, Time 1.58333): 1.29 and 1.292 and 1.375 | Trp to D2G FRET signal, Test (D59C MelBSt; D59C MelBSt mutant Na+, Time 1.6): 1.287 and 1.293 and 1.38 | Trp to D2G FRET signal, Test (D59C MelBSt; D59C MelBSt mutant Na+, Time 1.61667): 1.293 and 1.2915 and 1.362 | Trp to D2G FRET signal, Test (D59C MelBSt; D59C MelBSt mutant Na+, Time 1.63333): 1.299 and 1.278 and 1.358 | Trp to D2G FRET signal, Test (D59C MelBSt; D59C MelBSt mutant Na+, Time 1.65): 1.272 and 1.269 and 1.372 | Trp to D2G FRET signal, Test (D59C MelBSt; D59C MelBSt mutant Na+, Time 1.66667): 1.295 and 1.266 and 1.37 | Trp to D2G FRET signal, Test (D59C MelBSt; D59C MelBSt mutant Na+, Time 1.68333): 1.287 and 1.289 and 1.378 | Trp to D2G FRET signal, Test (D59C MelBSt; D59C MelBSt mutant Na+, Time 1.7): 1.301 and 1.273 and 1.365 | Trp to D2G FRET signal, Test (D59C MelBSt; D59C MelBSt mutant Na+, Time 1.71667): 1.2912 and 1.279 and 1.361 | Trp to D2G FRET signal, Test (D59C MelBSt; D59C MelBSt mutant Na+, Time 1.73333): 1.293 and 1.29 and 1.3441 | Trp to D2G FRET signal, Test (D59C MelBSt; D59C MelBSt mutant Na+, Time 1.75): 1.291 and 1.287 and 1.358 | Trp to D2G FRET signal, Test (D59C MelBSt; D59C MelBSt mutant Na+, Time 1.76667): 1.307 and 1.279 and 1.387 | Trp to D2G FRET signal, Test (D59C MelBSt; D59C MelBSt mutant Na+, Time 1.78333): 1.304 and 1.264 | Kd (WT MelBSt): 10 µM
